Results taken from patent US20120245229A1, “METHOD FOR TREATING NEUROPATHIC PAIN” (priority 2009, published 2012).
Like-named read-outs stand apart in the source and are kept apart here.

Key:
[1] = test system: formalin-induced inflammatory pain; test: Formalin-induced spontaneous inflammatory pain (licking/flinching duration); assay type: in vivo, mice; settings: for formalin-induced pain behavior, 2nd phase: preemptive intrathecal injection, RvE1 0.3 and 1.0 ng, morphine 10 to 500 ng, NS-398 0.1, 1, and 10 μg, chemerin 0.45 to 100 ng; for reversal of RvE1's antinociceptive action, formalin 2nd phase: intrathecal, pertussis toxin 0.2 μg, naloxone 2 μg, ChemR23 siRNA 3 μg daily for 3 days before formalin
Experimental: (§1) Animals and pain models. Adult CD1 mice (male, 25-32 g) were used for most experiments. Knockout mice were used lacking TNFR1/II (Tnfrsf1a/1b^−/−) and TRPV1 (Trpv1^−/−) and C57BL/6 wild-type control mice, all from Jackson, for some experiments. All animal procedures performed in this study were approved by the Harvard Medical Area Standing Committee on Animals. 20 μl of diluted formalin (5%), carrageenan (CRG, 1%), or complete Freund's adjuvant (CFA) were injected into the plantar surface of a hindpaw to produce acute, persistent, or chronic inflammatory pain, respectively. Postoperative pain was also produced through hindpaw incision^36 and neuropathic pain by ligation of the spinal nerve^37.
(§2) Reagents and administration. RvE1 and RvD1 were suspended in 1% or 10% ethanol as vehicle for investigating acute (<1 h) and persistent (1-6 h) effects of resolvins on inflammatory pain. The reagents (10 μl) were delivered to the cerebral spinal fluid via intrathecal injection made by a spinal cord puncture between the L5 and L6 level with a 30G needle^38.
(§3) Behavioral analysis. Mice were habituated in the testing environment for two days and performed behavioral testing in a blinded manner. Formalin-evoked spontaneous inflammatory pain was assessed by measuring duration (seconds) animals spent on licking/flinching the affected paws every 5 min for 45 min. Capsaicin-induced spontaneous pain was aslo assessed for 10 min. For testing mechanical sensitivity, mice were put in boxes on an elevated metal mesh floor and stimulated hindpaw with a series of von Frey hairs with logarithmically incrementing stiffness (0.02-2.56 grams, Stoelting), presented perpendicular to the plantar surface. It was determined the 50% paw withdrawal threshold using Dixon's up-down method^40. For testing heat sensitivity, mice were placed in plastic boxes and tested heat sensitivity using Hargreaves radiant heat apparatus (IITC Life Science Inc.). The basal paw withdrawal latency was adjusted to 9-12 seconds and set a cut-off of 20 seconds to prevent tissue damage. The percent maximal possible antinociceptive effect (% M.P.E) was calculated using the equation % M.P.E.=[(PL−BL2)/(BL1−BL2)]×100. BL1, baseline latency before inflammation; BL2, baseline latency after inflammation but before drug injection; PL, latency post drug injection.
(§4) Intrathecal injection. To avoid systemic effects of drugs and target spinal mechanisms, drugs were delivered into cerebral spinal fluid (CSF) space around lumbosacral spinal cord via intrathecal (i.t.) administration. Spinal cord puncture was made with a 30G needle between the L5 and L6 level to deliver the reagents (10 μl) to the cerebral spinal fluid (Hylden and Wilcox, 1980)^5. […] In addition to spinal cord cells, intrathecal drug administration also affects DRG cells^6,7.
Intrathecal injection: DHA and EPA (Cayman Chemical, 10 μg, prepared in 1% ethanol), COX-2 inhibitor NS-398 (Sigma, 0.1, 1, and 10 μg, prepared in 1% ethanol in FIG. 1a-c or in 10% ethanol in FIG. 2c), morphine (Sigma, 10 to 500 ng, prepared in 1% ethanol in FIG. 1a-c), naloxone (Sigma, 2 μg, prepared in 1% ethanol), pertussis toxin (Tocris Bioscience, 0.2 μg, prepared in saline), chemerin (R & D Systems, 0.45 to 100 ng, prepared in 1% ethanol), TNF-α (R & D Systems, 20 ng, prepared in saline), and capsaicin (Sigma, 0.5 μg in 10 μl, prepared in 1% DMSO) were delivered. To examine whether pretreatment of RvE1 attenuated TNF-α-induced persistent hyperalgesia at 1, 3, and 24 h, RvE1 and TNF-α were mixed and injected at the same time (FIG. 3c). To examine whether pretreatment of RvE1 attenuates capsaicin-induced acute spontaneous pain, RvE1 and capsaicin were mixed and injected at the same time (FIG. 3f).

[2] = test system: complete Freund's adjuvant (CFA)-evoked heat hyperalgesia; test: CFA-evoked heat hyperalgesia (paw withdrawal latency, Hargreaves); assay type: in vivo, mice; settings: intrathecal; for effective doses relative to that of RvE1: CFA heat hyperalgesia
Experimental: as §1, §2, §3, §4
The anti-hyperalgesic efficacy of RvE1 prepared in 1% and 10% ethanol was compared on post-CFA day 3.

[3] = test system: lamina II neurons; test: Patch clamp recording of sEPSCs in lamina II neurons of spinal cord slices; assay type: cell-based, mice
Experimental: (§5) Spinal cord slice preparation. As previously reported^39, a portion of the lumbar spinal cord (L4-L5) was removed from young mice (3-4 week old) under urethane anesthesia (1.5-2.0 g/kg, i.p.) and transverse spinal cord slices were cut (600 μm) on a vibrating microslicer. The slices were perfused with Kreb's solution (8 ml/min) for >2 h prior to experiments. Some slices were stimulated with TNF-α (10 ng/ml, 5 min), the slices were fixed with 4% paraformaldehyde for 1 h, and processed pERK immunohistochemistry using thin sections (15 μm)^13.
(§6) Patch clamp recordings in spinal slices. Whole cell patch-clamp recordings were performed in lamina II neurons in voltage clamp mode^39. After establishing the whole-cell configuration, neurons were held at the holding potentials of −70 mV for recording spontaneous excitatory postsynaptic current (sEPSC). NMDA-induced currents were recorded by bath application of NMDA (50 μM, Sigma) at the holding potential of −50 mV. Membrane currents were amplified with an Axopatch 200A amplifier (Axon Instruments) in voltage-clamp mode. pCLAMP 6 was used and Mini Analysis (Synaptosoft Inc.) software to store and analyze the data. Those cells showing >5% changes from the baseline levels were reagrded as responding ones^24.
(§7) Resolvins were also used for intraplantar injection. RvD1 or RvE1 was injected into the plantar surface of a hindapaw [20 ng, 20 μl , in 1% ethanol (Supplementary FIG. 5a, 5b) or in 10% ethanol (FIG. 2e, Supplementary FIG. 1d)]. DRG cultures were incubated with RvE1 (10 ng/ml, 0.1% ethanol in culture medium) and perfused spinal cord slices with RvE1 (1 ng/ml, in 0.01% ethanol and Kreb's solution).
(§8) Perfusion of spinal cord slices: Spinal cord slices were incubated with chemerin (100 ng/ml, in Kreb's solution), TNF-α (10 ng/ml, in Kreb's solution), capsaicin (100 nM, in 0.01% DMSO and Kreb's solution), TRPV1 antagonist capsazepine (Sigma, 10 μM, in 0.01% DMSO and Kreb's solution), pertussix toxin (0.5 μg/ml, in Kreb's solution), and MEK inhibitor PD98059 and U0126 (CalBiochem, 1 μM, in 0.01% DMSO and Kreb's solution). For pertussix toxin treatment, spinal cord slices were incubated with the toxin for 3 h before stimulation.

[4] = test system: glutamate NMDA receptors (NMDARs); test: NMDA-induced currents in dorsal horn (lamina II) neurons of spinal cord slices; assay type: cell-based, mice; settings: NMDA 50 μM; TNF-α 10 ng/ml; PD98059 1 μM, U0126 1 μM, capsazepine 10 μM
Experimental: as §5, §6, §7, §8

[5] = test system: SNL-induced neuropathic pain; test: Neuropathic pain model induced by spinal nerve ligation (SNL); assay type: in vivo, mice; settings: for SNL-induced heat hyperalgesia: 10 ng, i.t., one day after spinal nerve ligation
Experimental: as §1, §3

[6] = test system: inflammatory pain; test: Inflammatory pain models induced by formalin or CFA (summary statements); assay type: in vivo, mouse
Experimental: as §1, §3

[7] = capsaicin 100 nM, RvE1 1 ng/ml, chemerin 100 ng/ml, PD98059 and U0126 1 μM

CN1CC[C@]23c4c5ccc(O)c4O[C@H]2[C@@H](O)C=C[C@H]3[C@H]1C5 [morphine]
formalin-induced pain behavior, 2nd phase [1]: Reduction

CC/C=C\C/C=C\C/C=C\C/C=C\C/C=C\C/C=C\CCC(=O)O [DHA, docosahexaenoic acid, reference compound]
effective doses relative to that of RvE1 [2]: 10,000 times higher

C=CCN1CC[C@]23c4c5ccc(O)c4O[C@H]2C(=O)CC[C@@]3(O)[C@H]1C5 [naloxone]
reversal of morphine's antinociceptive effect, formalin 2nd phase ([1]; intrathecal naloxone 2 μg): reversed | reversal of RvE1's antinociceptive action, formalin 2nd phase [1]: not RvE1's effect

N#CC(=C(/N)Sc1ccccc1N)/C(C#N)=C(\N)Sc1ccccc1N [U0126, reference compound]
capsaicin-evoked sEPSC frequency increase [3]: blocked | TNF-α-induced potentiation of NMDA currents (NMDAR activation) [4]: blocked

Oc1cc2c(cc1O)CN(C(=S)NCCc1ccc(Cl)cc1)CCC2 [capsazepine, reference compound]
TNF-α-evoked sEPSC frequency increase ([3]; TNF-α 10 ng/ml, RvE1 1 ng/ml, capsazepine 10 μM): reduced | TNF-α-induced potentiation of NMDA currents (NMDAR activation) [4]: but not capsazepine blocked

O=C(O)CCC[C@H](O)\C=C/C=C/C=C/[C@H](O)C/C=C\C=C\[C@@H](O)COc1ccc(F)cc1 [19-pf-RvE1, 19-(p-fluorophenoxy)-RvE1]
time for which hyperalgesia was reduced ([2]; post-CFA day 3): 6 h | SNL-induced heat hyperalgesia [5]: more persistent reduction in heat hyperalgesia | SNL-induced heat hyperalgesia ([5]; listed as modified RvE1): reduces SNL-induced heat hyperalgesia

CC/C=C\C/C=C\C/C=C\C/C=C\C/C=C\CCCC(=O)O [EPA, eicosapentaenoic acid, reference compound]
effective doses relative to that of RvE1 [2]: 10,000 times higher

COc1cccc(-c2cc(=O)c3ccccc3o2)c1N [PD98059, reference compound]
capsaicin-evoked sEPSC frequency increase [3, 7]: blocked | TNF-α-induced potentiation of NMDA currents (NMDAR activation) [4]: blocked

CCC(=O)/C=C/C=C\C[C@@H](O)/C=C/C=C/C=C\[C@@H](O)CCCC(=O)O [18-oxo-RvE1, reference compound]
CFA-evoked heat hyperalgesia ([2]; post-CFA day 3, DHA and EPA 10 μg): essentially inactive

COc1cc(CNC(=O)CCCC/C=C/C(C)C)ccc1O [capsaicin, reference compound]
increase in sEPSC frequency ([3]; capsaicin 100 nM): 2 fold

pertussis toxin
reversal of RvE1's antinociceptive action, formalin 2nd phase [1]: abrogated

CC/C=C\C[C@H](O)\C=C/C=C/C=C/[C@H](O)C/C=C\C/C=C\CCC(=O)O [PD1]
nerve injury-induced hyperalgesia ([5]; neuropathic pain model induced by spinal nerve ligation): potently attenuate | pain-like behaviors [6]: potently inhibit

CS(=O)(=O)Nc1ccc([N+](=O)[O-])cc1OC1CCCCC1 [NS-398]
formalin-induced pain behavior, 2nd phase [1]: Reduction

B1: chemerin: a peptide agonist for ChemR23 (R & D Systems) (protein, UniProt Q99969 21-157, looked up)
Retinoic acid receptor …: ELTEAQRRGLQVALEEFHKHPPVQWAFQETSVESAVDTPFPAGIFVRLEFKLQQTSCRKRDWKKPECKVRPNGRKRKCLACIKLGSEDKVLGRLVHCPIETQVLREAEEHQETQCLRVQRAGEDPHSFYFPGQFAFS
modifications: Chemerin
formalin-induced pain behavior, 2nd phase [1]: dose-dependently attenuated | capsaicin-evoked sEPSC frequency increase [3, 7]: abolished
